PMC10424673 (Journal of Medicinal Chemistry, 2023)
Where a SMILES comes first, the peptide text is derived from it. [ ]: non-standard residue; d: D form. The star is where a group is joined. NHNH2 = NN*

How the values were obtained:
[1] = system: GFP under CREB in HEK293 cells stably expressing hGLP-2R; test: Western blot of GFP expression under control of CREB in HEK293 cells stably expressing hGLP-2R; type: cell-based, human; conditions: 10 μM peptide, after 36 hours of incubation, mean ± sd, n = 3
Excerpt: We then investigated the downstream effects of stimulating GLP-2R with the D-GLP-2 analogues to study the D-peptide designs’ effects on GLP-2R. We wanted to determine whether activating GLP-2R with D-GLP-2 analogues would promote GFP expression in HEK293 cells containing a GFP gene under the control of cAMP response element binding protein (CREB) and AKT phosphorylation. We also checked the beta-actin expression in all the treatments as loading controls. Of relevance, all peptides induced a similar GFP expression under the CREB, reaching saturation between 24 and 48 h of incubation (Figures 5E,F, S1A, Table S3). We also found a concentration-dependent increase in GFP expression in response to all the peptides’ stimulation (Figure S1B).
The cells were lysed with a lysis buffer 50 mM Tris-HCl pH 7.4, 1% Nonidet P-40, 150 mM NaCl, 1 mM ethylenediaminetetraacetic acid, 10 mM Na3VO4, 10 mM sodium pyrophosphate, and 25 mM NaF, 1× protease inhibitor mixture (Sigma) for 30 min at 4 °C. […] The transferred samples were immunoblotted with primary antibodies, followed by incubation with horseradish peroxidase-conjugated secondary antibodies (Santa Cruz Biotechnology) and detected using enhanced chemiluminescence (GE Healthcare).

hGLP-2R = target: T1, hGLP-2R (Homo sapiens, UniProt O95838); test: HTRF cAMP assay in GLP-2R-expressing HEK293 cells; type: cell-based
T1 construct: expressed in transfected cells
T1 sequence (O95838 1-553): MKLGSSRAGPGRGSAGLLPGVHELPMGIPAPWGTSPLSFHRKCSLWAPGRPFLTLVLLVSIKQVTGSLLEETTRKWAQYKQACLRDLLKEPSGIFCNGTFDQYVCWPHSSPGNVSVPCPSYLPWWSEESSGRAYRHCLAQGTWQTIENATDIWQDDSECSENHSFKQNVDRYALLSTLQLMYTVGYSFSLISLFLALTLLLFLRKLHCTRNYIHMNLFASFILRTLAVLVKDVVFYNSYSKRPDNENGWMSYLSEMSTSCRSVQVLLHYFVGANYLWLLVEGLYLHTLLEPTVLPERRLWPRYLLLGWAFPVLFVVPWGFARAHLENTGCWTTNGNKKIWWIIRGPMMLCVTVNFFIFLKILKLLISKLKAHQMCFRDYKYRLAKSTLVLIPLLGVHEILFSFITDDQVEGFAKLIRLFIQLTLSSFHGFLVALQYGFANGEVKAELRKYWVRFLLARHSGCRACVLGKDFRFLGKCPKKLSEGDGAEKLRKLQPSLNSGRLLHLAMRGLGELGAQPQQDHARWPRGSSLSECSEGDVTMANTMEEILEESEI

proteinase K = proteinase K (Parengyodontium album, UniProt P06873); conditions: 20 μM peptide, ProtK 100 μg/mL, 10 mM Tris-base, 10 mM NaCl, pH 7.4, 5 μM CaCl2, 37 °C, SDS-PAGE Coomassie densitometry normalised to T0, repeated three times
DPP-IV = DPP-IV (Homo sapiens, UniProt P27487); conditions: 20 μM peptide, DPP-IV 50 μg/mL, 100 mM Tris pH 8.0, 2.5 h, SDS-PAGE densitometry and mass spectrometry
GLP-2R [2] = target: T2, GLP-2R (Homo sapiens, UniProt O95838); parameters: method as in 2 sources, one per row (each row's own in cited_ref): ref 28 (Gadgaard et al.) ||| ref 28 = [28]; PMID 36780786; doi:10.1016/j.biopha.2023.114383; Gadgaard S.; Windeløv J. A.; Schiellerup S. P.; Holst J. J.; Hartmann B.; Rosenkilde M. M. Long-Acting Agonists of Human and Rodent Glp-2 Receptors for Studies of the Physiology and Pharmacologic; conditions: cited from earlier work
T2 construct: host or cells: CHO-K1 PathHunter reporter cells

GLP-2R [3] = target: T2, GLP-2R; parameters: method as in PMID 36780786; conditions: cited from earlier work

T2 sequence (P32121 whole entry partner, one chain of several): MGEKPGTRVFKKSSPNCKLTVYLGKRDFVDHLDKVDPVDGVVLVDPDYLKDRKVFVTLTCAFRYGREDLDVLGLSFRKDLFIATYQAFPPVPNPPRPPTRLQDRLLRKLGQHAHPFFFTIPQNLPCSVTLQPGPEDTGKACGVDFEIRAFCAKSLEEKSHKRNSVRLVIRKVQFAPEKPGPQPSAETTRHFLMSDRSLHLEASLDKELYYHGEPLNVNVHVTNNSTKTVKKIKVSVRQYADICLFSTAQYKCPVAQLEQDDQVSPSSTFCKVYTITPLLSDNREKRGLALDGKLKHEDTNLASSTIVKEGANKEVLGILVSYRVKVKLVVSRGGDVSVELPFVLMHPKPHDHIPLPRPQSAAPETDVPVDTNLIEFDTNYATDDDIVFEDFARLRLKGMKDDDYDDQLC
Chain of DPP-IV (P27487 whole entry, species assumed): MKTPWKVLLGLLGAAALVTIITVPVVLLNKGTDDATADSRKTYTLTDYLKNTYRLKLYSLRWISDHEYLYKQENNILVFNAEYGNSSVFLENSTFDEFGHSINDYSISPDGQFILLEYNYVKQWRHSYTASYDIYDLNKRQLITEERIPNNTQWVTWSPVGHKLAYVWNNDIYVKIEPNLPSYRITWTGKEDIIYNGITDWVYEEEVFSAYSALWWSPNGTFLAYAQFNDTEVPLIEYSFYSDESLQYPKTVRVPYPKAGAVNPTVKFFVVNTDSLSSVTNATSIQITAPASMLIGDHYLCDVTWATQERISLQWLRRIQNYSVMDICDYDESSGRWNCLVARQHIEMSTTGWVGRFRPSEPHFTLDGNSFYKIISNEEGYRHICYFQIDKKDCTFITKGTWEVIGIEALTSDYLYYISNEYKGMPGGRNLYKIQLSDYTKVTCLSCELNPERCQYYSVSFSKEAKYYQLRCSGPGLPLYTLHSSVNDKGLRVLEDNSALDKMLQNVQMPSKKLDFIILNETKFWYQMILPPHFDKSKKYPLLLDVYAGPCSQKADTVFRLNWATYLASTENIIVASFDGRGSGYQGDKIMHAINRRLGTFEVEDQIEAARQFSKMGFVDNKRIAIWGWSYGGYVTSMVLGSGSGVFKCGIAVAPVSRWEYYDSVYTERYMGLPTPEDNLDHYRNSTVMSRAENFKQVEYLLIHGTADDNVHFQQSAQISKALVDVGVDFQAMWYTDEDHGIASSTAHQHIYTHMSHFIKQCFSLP
Chain of proteinase K (P06873 106-384): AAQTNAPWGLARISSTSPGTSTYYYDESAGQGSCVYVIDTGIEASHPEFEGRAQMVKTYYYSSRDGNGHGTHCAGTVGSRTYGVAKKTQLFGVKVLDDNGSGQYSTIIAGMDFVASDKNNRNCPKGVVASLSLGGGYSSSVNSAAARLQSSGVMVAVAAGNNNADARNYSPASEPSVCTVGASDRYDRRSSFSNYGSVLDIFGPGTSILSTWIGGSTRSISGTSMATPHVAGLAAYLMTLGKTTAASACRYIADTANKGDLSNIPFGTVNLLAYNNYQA

Compound: CC[C@@H](C)[C@@H](NC(C)=O)C(=O)N[C@H](CCCCN)C(=O)N[C@H](C)C(=O)N[C@H](CCC(N)=O)C(=O)N[C@H](Cc1c[nH]c2ccccc12)C(=O)N[C@H](CC(C)C)C(=O)N[C@H](C)C(=O)N[C@H](C)C(=O)N[C@H](CCC(=O)O)C(=O)N[C@H](Cc1ccccc1)C(=O)N[C@@H](C(=O)N[C@H](CCC(N)=O)C(=O)N[C@H](C)C(=O)N[C@@H](C(=O)N[C@H](C)C(=O)N[C@H](C)C(=O)N[C@@H](C(=O)N[C@H](CC(C)C)C(=O)N[C@H](C)C(=O)N[C@H](CCSC)C(=O)N[C@H](CC(C)C)C(=O)N[C@H](CCCNC(=N)N)C(=O)N[C@H](CC(N)=O)C(=O)N[C@H](CC(N)=O)C(=O)N[C@H](CCC(N)=O)C(=O)N[C@H](Cc1ccccc1)C(=O)N[C@H](CCC(=O)O)C(=O)N[C@H](Cc1ccccc1)C(=O)N[C@H](C)C(=O)NCC(=O)N[C@@H](C(=O)N[C@H](C)C(=O)N[C@H](Cc1c[nH]cn1)C(=O)NN)C(C)C)C(C)C)C(C)C)[C@H](C)CC [D-GLP-2 E33A hydrazide] (Ac-[dI][dK][dA][dQ][dW][dL][dA][dA][dE][dF][dI][dQ][dA][dV][dA][dA][dV][dL][dA][dM][dL][dR][dN][dN][dQ][dF][dE][dF][dA]G[dV][dA][dH]-NHNH2)
- GFP relative expression level, relative to L-GLP-2-treated cells [1]: 1.08 ± 0.14
- EC50 (hGLP-2R): 226 nM
- improvement of GLP-2R activation compared to D-GLP-2 (hGLP-2R; ratio of cAMP EC50 values, compared to D-GLP-2): 6.26 fold

Compound: CC[C@@H](C)[C@@H](NC(C)=O)C(=O)N[C@H](CCCCN)C(=O)N[C@H](C)C(=O)N[C@H](CCC(N)=O)C(=O)N[C@H](Cc1c[nH]c2ccccc12)C(=O)N[C@H](CC(C)C)C(=O)N[C@H](C)C(=O)N[C@H](C)C(=O)N[C@H](CCC(=O)O)C(=O)N[C@H](Cc1ccccc1)C(=O)N[C@@H](C(=O)N[C@H](CCC(N)=O)C(=O)N[C@H](C)C(=O)N[C@@H](C(=O)N[C@H](C)C(=O)N[C@H](C)C(=O)N[C@@H](C(=O)N[C@H](CC(C)C)C(=O)N[C@H](C)C(=O)N[C@H](CCSC)C(=O)N[C@H](CC(C)C)C(=O)N[C@H](CCCNC(=N)N)C(=O)N[C@H](CC(N)=O)C(=O)N[C@H](CC(N)=O)C(=O)N[C@H](CCC(N)=O)C(=O)N[C@H](Cc1ccccc1)C(=O)N[C@H](CCC(=O)O)C(=O)N[C@H](Cc1ccccc1)C(=O)N[C@H](C)C(=O)NCC(=O)N[C@@H](C(=O)N[C@H](CCC(=O)O)C(=O)N[C@H](Cc1c[nH]cn1)C(N)=O)C(C)C)C(C)C)C(C)C)[C@H](C)CC [D-GLP-2] (Ac-[dI][dK][dA][dQ][dW][dL][dA][dA][dE][dF][dI][dQ][dA][dV][dA][dA][dV][dL][dA][dM][dL][dR][dN][dN][dQ][dF][dE][dF][dA]G[dV][dE][dH]-NH2)
- EC50 (hGLP-2R): 1420 nM
- times less potent (weaker EC50) than native L-GLP-2 (hGLP-2R; ratio of cAMP EC50 to that of GLP-2): 35 times

Compound: CC[C@H](C)[C@H](NC(=O)[C@H](Cc1ccccc1)NC(=O)[C@H](CC(=O)O)NC(=O)[C@H](CCCNC(=N)N)NC(=O)[C@H](C)NC(=O)[C@H](C)NC(=O)[C@H](CC(C)C)NC(=O)[C@H](CC(N)=O)NC(=O)[C@H](CC(=O)O)NC(=O)[C@H](CC(C)C)NC(=O)[C@@H](NC(=O)[C@@H](NC(=O)[C@H](CC(N)=O)NC(=O)[C@H](CCSC)NC(=O)[C@H](CCC(=O)O)NC(=O)[C@H](CC(=O)O)NC(=O)[C@H](CO)NC(=O)[C@H](Cc1ccccc1)NC(=O)[C@H](CO)NC(=O)CNC(=O)[C@H](CC(=O)O)NC(=O)CNC(=O)[C@@H](N)Cc1c[nH]cn1)[C@@H](C)O)[C@@H](C)CC)C(=O)N[C@@H](CC(N)=O)C(=O)N[C@@H](Cc1c[nH]c2ccccc12)C(=O)N[C@@H](CC(C)C)C(=O)N[C@H](C(=O)N[C@@H](CCC(N)=O)C(=O)N[C@H](C(=O)N[C@@H](CCCCN)C(=O)N[C@H](C(=O)N[C@H](C(=O)N[C@@H](CC(=O)O)C(=O)O)[C@@H](C)O)[C@@H](C)CC)[C@@H](C)O)[C@@H](C)CC [L-GLP-2-2G]
- peptide remaining after proteinase K exposure, 2 h (proteinase K): almost complete loss
- peptide remaining after incubation with DPP-IV (DPP-IV): remained intact

Compound: GLP-2_3–33: the product of DPP-IV inactivation of GLP-2_1–33 (DGSFSDEMNTILDNLAARDFINWLIQTKITD; Glucagon-like peptide 2; UniProt P01275 148-178, looked up, fragment)
- mode of action at GLP-2R (GLP-2R [2]): competitive antagonist of GLP-2_1–33
- efficacy at GLP-2R (GLP-2R [2]; ref 28 (Gadgaard et al.)): 11%
- β-arrestin 1 and 2 recruitment (GLP-2R [3]): could not recruit β-arrestin 1 and 2
